# Measurements as given in patent publication US8034940B2, “Modulators of glucocorticoid receptor, AP-1, and/or NF-κB activity and use thereof” (Bristol-Myers Squibb Company, priority 2006, dated 2011).
# System: AP-1 induced transcriptional activity
# Test: Cellular Transrepressional Assay (AP-1 luciferase reporter, PMA-activated A549 cells)
# Assay type: cell-based
# Details: for Emax: A549, 7 h, read-out: AP-1 Max % inh (Cellular Transrepression Assay); for Emax / AP-1 Max % inh (Cellular Transrepression Assay): maximum inhibition
# Description: Cellular Transrepressional Assay
# To measure the ability of test molecules to inhibit AP-1 induced transcriptional activity we utilized an A549 cell which was stably transfected with a plasmid containing 7× AP-1 DNA binding sites (pAP-1-Luc plasmid, Stratagene Co. La Jolla, Calif.) followed by the gene for luciferase. Cells were activated with 10 ng/ml of […] (PMA) plus or minus test molecules for 7 hours. After 7 hours a luciferase reagent was added to measure luciferase enzymatic activity in the cell. After a 10 minute incubation of luciferase reagent with cells, luminescence was measured in a TopCount luminescence counter. Repression of AP-1 activity was calculated as the percentage decrease in the signal induced by PMA alone. Test molecules were analyzed in the concentration range from 0.1 nM to 40 μM. EC50s were determined by using standard curve fitting methods such as Excel fit (Microsoft Co.).
# [1] = Homo sapiens, Cellular Transrepression Assay
# [2] = Homo sapiens, A549, Cellular Transrepression Assay
EC50 [2] [nM],EC50 (Cellular Transrepression Assay) [nM],"EC50 (Cellular Transrepression Assay, listed as 166^a) [nM]",SMILES,Emax [1] [%],AP-1 Max % inh (Cellular Transrepression Assay) (Cellular Transrepression Assay) [%]
307,,,CC(C)(C(=O)Nc1nncs1)C1c2ccccc2Oc2nc(N3CCOCC3)ccc21 (stereo not shown) [Example 129],39.5,
111,,,CC(C)(C(=O)Nc1nncs1)C1c2ccccc2Oc2nc(N3CCCC3)ccc21 (stereo not shown) [Example 130],31.5,
970,,,CN1CCN(c2ccc3c(n2)Oc2ccccc2C3C(C)(C)C(=O)Nc2nncs2)CC1 (stereo not shown) [Example 131],45.6,
96,,,CC(C)(C(=O)Nc1nncs1)C1c2ccccc2Oc2nc(N3CCCCC3)ccc21 (stereo not shown) [Example 132],50.1,
585,,,CC(C)(C(=O)Nc1nncs1)C1c2ccccc2Oc2nc(NCc3ccccc3)ccc21 (stereo not shown) [Example 133],61.3,
95.5,,,CC(C)(C(=O)Nc1nncs1)[C@H]1c2ccccc2Oc2nc(N3CCC4(CC3)OCCO4)ccc21 [Example 139],26.8,
93.7,,,COc1ccc(CNc2ccc3c(n2)Oc2ccccc2[C@@H]3C(C)(C)C(=O)Nc2nncs2)cc1 [Example 140],64.1,
92.1,,,CC(C)(C(=O)Nc1nncs1)[C@H]1c2ccccc2Oc2nc(N3CCCC3)ccc21 [Example 141],44.2,
236,,,CC(C)(C(=O)Nc1nccs1)C1c2ccccc2Oc2nc(N3CCOCC3)ccc21 (stereo not shown) [Example 154],46.2,
200,,,CC(C)(C(=O)Nc1nccs1)C1c2ccccc2Oc2nc(N)ccc21 (stereo not shown) [Example 158],62.5,
479,,,CC(C)(C(=O)Nc1nncs1)C1c2ccccc2Oc2nc(N)ccc21 (stereo not shown) [Example 159],30.3,
4.9,,,Cc1nnc(NC(=O)C(C)(C)C2c3ccc(-c4ccc(C(=O)N5CCOCC5)cc4)nc3Oc3c(F)cccc32)s1 (stereo not shown) [Example 163],64.4,
8.5,,,Cc1nsc(NC(=O)C(C)(C)C2c3ccc(-c4ccc(C(=O)N5CCOCC5)cc4)nc3Oc3c(F)cccc32)n1 (stereo not shown) [Example 164],58,
9.8,,,Cc1nnc(NC(=O)C(C)(C)C2c3ccc(-c4ccc(C(=O)N(C)C)c(F)c4)nc3Oc3c(F)cccc32)s1 (stereo not shown) [Example 165],53.4,
,43.4,14.5,Cc1nnc(NC(=O)C(C)(C)C2c3ccc(-c4ccc(C(=O)N(C)C)cc4)nc3Oc3c(F)cccc32)s1 (stereo not shown) [Example 166],56.1,
,92.7,,COc1ccc(-c2ccc3c(n2)Oc2ccccc2C3C(C)(C)C(=O)Nc2nncs2)cc1 (stereo not shown) [Example 169],,48.82
,182,,Cc1ccc(-c2ccc3c(n2)Oc2ccccc2C3C(C)(C)C(=O)Nc2nncs2)cc1 (stereo not shown) [Example 170],,44.12
,13.2,,CN(C)C(=O)c1ccc(-c2ccc3c(n2)Oc2ccccc2C3C(C)(C)C(=O)Nc2nncs2)cc1 (stereo not shown) [Example 172],,59.04
,82.5,,CC(C)(C(=O)Nc1nncs1)C1c2ccccc2Oc2nc(-c3ccc(OC(F)(F)F)cc3)ccc21 (stereo not shown) [Example 173],,44.82
,118,,CN(C)c1ccc(-c2ccc3c(n2)Oc2ccccc2C3C(C)(C)C(=O)Nc2nncs2)cc1 (stereo not shown) [Example 176],,43.54
,109,,CC(C)(C(=O)Nc1nncs1)C1c2ccccc2Oc2nc(-c3ccc(C(F)(F)F)cc3)ccc21 (stereo not shown) [Example 182],,33.12
,22.6,,CC(C)(C(=O)Nc1nncs1)C1c2ccccc2Oc2nc(-c3ccc(O)cc3)ccc21 (stereo not shown) [Example 191],,37.51
,22.2,,CC(C)(C(=O)Nc1nncs1)C1c2ccccc2Oc2nc(-c3ccc(Oc4ccccc4)cc3)ccc21 (stereo not shown) [Example 198],,34.38
,27.6,,CSc1ccc(-c2ccc3c(n2)Oc2ccccc2C3C(C)(C)C(=O)Nc2nncs2)cc1 (stereo not shown) [Example 199],,48.94
